{"source": "BindingDB's records for doi:10.1016/s0960-894x(02)00061-6", "about": "(Lek, 2002)", "target": "Beta-lactamase TEM (Escherichia coli, UniProt P62593)", "sequence (P62593 whole entry)": "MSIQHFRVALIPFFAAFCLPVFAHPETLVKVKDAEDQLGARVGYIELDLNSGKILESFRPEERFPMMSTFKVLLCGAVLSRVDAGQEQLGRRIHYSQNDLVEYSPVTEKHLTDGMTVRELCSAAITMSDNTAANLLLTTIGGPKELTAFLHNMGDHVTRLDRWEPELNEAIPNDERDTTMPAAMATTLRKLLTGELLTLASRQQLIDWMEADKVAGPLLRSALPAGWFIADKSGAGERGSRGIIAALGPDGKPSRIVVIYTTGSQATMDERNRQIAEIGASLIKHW", "experiment": "ChEBML_47839", "protocol": "The compound was tested for its inhibitory activity towards Class A TEM-1 beta-lactamase from Escherichia coli at 0.3 umol"}
{"smiles": "C/C=C1/C(=O)N2C(C(=O)O)=C3CCCCC3[C@H]12", "note": "(stereo partly drawn) [Sodium; (R)-1-eth-(E)-ylidene-2-oxo-1,2,5,6,7,8,8a,8b-octahydro-azeto[2,1-a]isoindole-4-carboxylate]", "values": [{"measurement": "IC50", "result": 120, "unit": "µM"}]}
